In ChEMBL document CHEMBL1201862, “PubChem BioAssay data set” (2004):
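Interpolation was linear, between the two tested concentrations surrounding the appropriate level; five concentrations were tested over 48 hours in 96-well plates. GI50 = concentration required for 50% inhibition of growth.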 Activity calls are given as the source filed them. No stated cut-off is given here; in the data, active = GI50 up to about 1.1 µM and inactive = higher.

Tests used:
Assay in all cases: DTP human tumour cell line panel, 48 h
OVCAR-4 = system: OVCAR-4
HOP-62 = system: HOP-62
MOLT-4 = system: MOLT-4
NCI-H226 = system: NCI-H226
SNB-75 = system: SNB-75
COLO 205 = system: COLO 205
PC-3 = system: PC-3
U-251 = system: U-251
HOP-92 = system: HOP-92
HCC 2998 = system: HCC 2998
SF-295 = system: SF-295
SNB-19 = system: SNB-19
OVCAR-8 = system: OVCAR-8
SK-MEL-5 = system: SK-MEL-5
A498 = system: A498
UO-31 = system: UO-31
NCI-H23 = system: NCI-H23
SK-MEL-28 = system: SK-MEL-28
DU-145 = system: DU-145

Measured: GI50

CN1Cc2cc3cc4c(cc3nc2N(C)C1)OCCO4
inactive: OVCAR-4 > 100 µM | HOP-62 > 100 µM | MOLT-4 64 µM | NCI-H226 > 100 µM | SNB-75 > 100 µM | COLO 205 > 100 µM | PC-3 > 100 µM | U-251 > 100 µM | HOP-92 > 100 µM | HCC 2998 > 100 µM | SF-295 > 100 µM | SNB-19 > 100 µM | OVCAR-8 > 100 µM | SK-MEL-5 > 100 µM | A498 68.4 µM

COc1cc2c(cc1OC)C(C(CO)CO)N(CC(O)CCl)CC2 (centres undefined)
inactive: UO-31 86.5 µM | OVCAR-4 > 100 µM | HOP-62 > 100 µM | MOLT-4 > 100 µM | NCI-H226 > 100 µM | SNB-75 > 100 µM | COLO 205 > 100 µM | U-251 > 100 µM | HOP-92 > 100 µM | HCC 2998 > 100 µM | NCI-H23 > 100 µM | SF-295 > 100 µM | SK-MEL-28 > 100 µM | SNB-19 > 100 µM | OVCAR-8 > 100 µM | SK-MEL-5 > 100 µM | A498 > 100 µM

[N-]=[N+]=CC(=O)OC1CCc2ccccc21 (centres undefined)
inactive: DU-145 12.8 µM | UO-31 13.7 µM | OVCAR-4 > 100 µM | HOP-62 55.2 µM | NCI-H226 > 100 µM | COLO 205 73.1 µM | PC-3 > 100 µM | U-251 > 100 µM | HOP-92 44.6 µM | HCC 2998 > 100 µM | NCI-H23 82.8 µM | SF-295 40.8 µM | SK-MEL-28 > 100 µM | SNB-19 > 100 µM | SK-MEL-5 85.1 µM | A498 > 100 µM

Cc1ccc(S(=O)(=O)Nn2c(-c3ccccc3)c(C#N)c(-c3ccc(Cl)cc3)c(C#N)c2=O)cc1
inactive: OVCAR-4 38.8 µM | HOP-62 30.1 µM | MOLT-4 18.7 µM | COLO 205 24.5 µM | PC-3 26.2 µM | U-251 21.5 µM | HOP-92 19.5 µM | HCC 2998 23.7 µM | SF-295 26.8 µM | SK-MEL-28 24.4 µM | SNB-19 31.2 µM | SK-MEL-5 15.2 µM | A498 21.8 µM

O=C(CCc1nnc2s/c(=C\c3ccc(Cl)c(Cl)c3)c(=O)n12)Nc1ccc(Cl)c(Cl)c1
inactive: UO-31 > 100 µM | OVCAR-4 73.5 µM | HOP-62 > 100 µM | MOLT-4 20.7 µM | NCI-H226 > 100 µM | SNB-75 58.3 µM | COLO 205 56.6 µM | U-251 36.9 µM | HOP-92 86.7 µM | HCC 2998 > 100 µM | NCI-H23 > 100 µM | SF-295 46.1 µM | SK-MEL-28 > 100 µM | SNB-19 45 µM | OVCAR-8 20.4 µM | SK-MEL-5 43.9 µM | A498 39 µM

C=CCN1COc2c(cc3c4c(cccc24)C(=O)O3)C1
inactive: UO-31 23.1 µM | OVCAR-4 68.1 µM | HOP-62 > 100 µM | MOLT-4 27 µM | NCI-H226 > 100 µM | SNB-75 23.8 µM | COLO 205 17.9 µM | U-251 > 100 µM | HOP-92 16.2 µM | HCC 2998 > 100 µM | NCI-H23 21.4 µM | SF-295 35.1 µM | SK-MEL-28 24.6 µM | SNB-19 > 100 µM | OVCAR-8 > 100 µM | SK-MEL-5 44.1 µM | A498 21.5 µM

O=C(/C=C/c1ccccc1Cl)c1ccc(Cl)c(Cl)c1
inactive: UO-31 17.1 µM | OVCAR-4 12.9 µM | HOP-62 23 µM | MOLT-4 21.3 µM | NCI-H226 > 100 µM | SNB-75 13 µM | COLO 205 > 100 µM | U-251 17.3 µM | HOP-92 26.9 µM | HCC 2998 15.5 µM | NCI-H23 20 µM | SF-295 17.3 µM | SK-MEL-28 20.2 µM | SNB-19 16.4 µM | OVCAR-8 17.7 µM | SK-MEL-5 18.9 µM | A498 15.9 µM

CNC(=O)NCCCCC(NC(C)=O)C(=O)NCc1ccccc1 (centres undefined)
inactive: UO-31 > 100 µM | OVCAR-4 > 100 µM | HOP-62 > 100 µM | MOLT-4 > 100 µM | NCI-H226 > 100 µM | SNB-75 47.1 µM | COLO 205 > 100 µM | U-251 > 100 µM | HOP-92 > 100 µM | HCC 2998 > 100 µM | NCI-H23 > 100 µM | SF-295 > 100 µM | SK-MEL-28 > 100 µM | SNB-19 > 100 µM | OVCAR-8 > 100 µM | SK-MEL-5 > 100 µM | A498 > 100 µM

COc1ccc(CN2C(=O)[C@@H]3Cc4c(OC)c(C)c(OC)c(OC)c4[C@H](/C2=C\c2cc(OC)c(OC)c(C)c2OC)N3C(=O)OC(C)C)cc1
inactive: UO-31 36.5 µM | OVCAR-4 50.7 µM | HOP-62 65 µM | MOLT-4 6.97 µM | NCI-H226 5.57 µM | SNB-75 > 100 µM | COLO 205 12.4 µM | U-251 > 100 µM | HOP-92 8.04 µM | HCC 2998 22.4 µM | NCI-H23 66.4 µM | SF-295 96.2 µM | SK-MEL-28 > 100 µM | SNB-19 > 100 µM | OVCAR-8 > 100 µM | SK-MEL-5 29.4 µM | A498 27.3 µM

CC1(C)CC(=O)C(C(=O)Nc2cccs2)=C(O)C1
inactive: UO-31 28.8 µM | OVCAR-4 31.1 µM | HOP-62 34.8 µM | MOLT-4 28 µM | NCI-H226 23.4 µM | SNB-75 25.2 µM | COLO 205 19.6 µM | U-251 31.8 µM | HOP-92 27.6 µM | HCC 2998 48.5 µM | NCI-H23 30 µM | SF-295 28.9 µM | SK-MEL-28 > 100 µM | SNB-19 31.1 µM | OVCAR-8 34.8 µM | SK-MEL-5 40.6 µM | A498 28.8 µM

Cc1cccc2[s+]snc12
inactive: UO-31 > 100 µM | OVCAR-4 > 100 µM | HOP-62 > 100 µM | MOLT-4 25.8 µM | NCI-H226 > 100 µM | SNB-75 > 100 µM | COLO 205 23.9 µM | U-251 > 100 µM | HOP-92 23.1 µM | HCC 2998 > 100 µM | NCI-H23 > 96.6 µM | SF-295 > 100 µM | SK-MEL-28 > 47.5 µM | SNB-19 > 100 µM | OVCAR-8 > 45 µM | SK-MEL-5 > 100 µM | A498 > 100 µM

CC(=O)C1C(=O)C(=O)N(c2cccc(C)c2C)C1=O (centres undefined)
inactive: DU-145 > 100 µM | UO-31 > 100 µM | HOP-62 > 100 µM | MOLT-4 22.8 µM | NCI-H226 > 100 µM | SNB-75 > 100 µM | COLO 205 > 100 µM | PC-3 > 100 µM | HOP-92 > 100 µM | NCI-H23 > 100 µM | SF-295 > 100 µM | SNB-19 > 100 µM | OVCAR-8 > 100 µM | SK-MEL-5 > 100 µM
